Measurements from patent US20260315653A1, “ANTICOAGULANT COMPOSITIONS COMPRISING ANTI-PLATELET AND ANTI-INFLAMMATORY DRUGS AND METHODS AND DEVICES FOR THEIR USE” (Elixir Medical Corporation, priority 2023, published 2026).
pIC50: −log10 of the molar value. Values joined by “and” are separate entries in the source; they are usually repeats but may differ in a detail not shown here. Equal entries are not always repeated.

How the values were obtained:
porcine coronary artery = assay: In vivo porcine coronary stent implantation: fibrin score and late lumen loss (Examples 25-26); conditions: Table 9, day 7
Description: The drug eluting stent systems containing different anticoagulants prepared as described in Example 11 were evaluated at 3 hours, 6 hours, 1 day, 3 days, 6 days, 7 days, or 28 days following implantation in a porcine coronary artery model.
The porcine model was chosen as this model has been used extensively for stent and angioplasty studies resulting in a large volume of data on the vascular response properties and its correlation to human vascular response (Schwartz et al, Circulation. 2002; 106:1867 1873). The animals were housed and cared for in accordance with the Guide for the Care and Use of Laboratory Animals as established by the National Research Council.
After induction of anesthesia, the left or right femoral artery was accessed using standard techniques and an arterial sheath was introduced and advanced into the artery. Vessel angiography was performed under fluoroscopic guidance, a 7 Fr. guide catheter was inserted through the sheath and advanced to the appropriate location where intracoronary nitroglycerin was administered. An appropriate implantation segment of coronary artery was randomly selected and a 0.014″ guidewire inserted. Quantitative Coronary Angiography (QCA) was performed to document the results. The appropriately size stent was advanced to the deployment site. The balloon was inflated at a steady rate to a pressure sufficient to achieve a balloon to artery ratio of approximately 1.1 to 1.0.
Follow up angiography was performed at the designated timepoint for each of the animals. Late lumen loss (LLL) can be expressed as: […]
The LLL is an indicator of the amount smooth muscle cell (SMC) proliferation or inhibition. It is used to measure efficacy between drugs for SMC proliferation inhibition. The smaller the LLL, the better the efficacy of the drug.
Stented portions of coronary arteries were embedded in methyl methacrylate (MMA), then divided into a target of at least three blocks of approximately similar lengths for histology evaluation. Quantitative histopathological evaluation of stented artery sections was then performed and scored as indicated. For Fibrin formation, scores ranged from 0 to 3, with a score of 0 indicating absent or rare minimal spotting around struts of the stent, a score of 1 indicating the presence of fibrin in small amounts localized only around the struts, a score of 2 indicating the moderately abundant or denser presence of fibrin around and extending beyond the struts, and a score of 3 indicating the presence of abundant and dense fibrin and/or bridging of the fibrin between the struts. The mean score was calculated and reported. The mean of each section was then averaged to provide a mean fibrin score per stent. The smaller the fibrin score, the better efficacy.

[1] = system: blood clotting (citrated sheep blood); assay: Activated clotting time (ACT) in citrated sheep blood (Example 2); conditions: single drug, 0.6 ng/mg
Description: The activated clotting time (ACT) evaluation of anticoagulants was performed in calcium citrate sheep blood and recorded employing the Hemochron® Response device.
The ACT measurements were made in citrated sheep blood. 1.9 ml of citrated sheep blood was added to a test tube containing an activator (Hemochron@Celite@ ACT tubes, Lot F8FTE026 from Accriva Diagnostics, Inc.). A target amount of drug solution was then added into the test tube. The test tube was gently swirled so that the blood and drug was well-mixed. 0.1 ml of 0.3M calcium chloride was then added. The tube was gently shaken before being inserted into the Hemochron Response detector. The ACT read out was recorded and reported. The ACT of the control blood in the absence of any drug as first determined to establish a baseline. Then ACT was determined in the presence of different concentrations of the drug as a single component. Selected drug combinations were then tested to evaluate for potential synergy in action between the two drugs.

[2] = In vivo drug release from / drug remaining on implanted stents (HPLC); set-up: species or system porcine; conditions: 14 mm stents, day 7, n = 3
Description: The percentage and/or amount of each anticoagulant drug for or by each time point indicated were analyzed for each stent from the different devices in the example and the average drug tissue concentration reported.
Tissue concentrations and the amount of drug released from the stents were measured using stents implanted in porcine arteries for the drugs as indicated. The arteries at the designated time point were excised and a length of stented artery spanning from 5 mm proximal to the stented segment to 5 mm distal to the stented segment was cut. The stented artery was cut longitudinally with surgical scissors. The stents were separated from the tissue. The tissue content of each drug was analyzed using liquid chromatography mass spectroscopy (LCMS) and reported as a mean for each of the timepoint indicated. For drug remaining on each stent, each drug was extracted from the stent, measured using HPLC, and reported as a mean for each of the timepoint indicated as drug released or drug remaining on a stent (where drug remaining is equal to 100% minus the percentage of drug released).

[3] = system: blood clotting (heparinized sheep blood); assay: Net ACT initiated by platelet activation factor (PAF) and CaCl2 in heparinized sheep blood (Examples 6-11); conditions: single drug, 0.05 ng/mg; PAF & CaCl2; blood control 235 seconds
Description: In order to examine the potential synergistic effects between anti-inflammatory agents, direct factor Xa inhibitors, direct factor IIa inhibitors, antiplatelets (P2Y12 inhibitor and glycoprotein IIb/IIIa inhibitor, platelet activation factor and CaCl2 were utilized by measuring ACT. Heparinized sheep blood was used to preserve platelet function.
The activated clotting time (ACT) evaluation initiated by platelet activation factor (PAF) and calcium chloride (CaCl2) was performed in heparinized sheep blood and recorded employing the Hemochron® Response device. […] A target amount of drug solution was then added into the test tube. The test tube was gently swirled so that the blood and drug were well-mixed. […] The tube was gently shaken before being inserted into the Hemochron Response detector. The ACT read out was recorded and reported. The ACT of the control heparinized sheep blood in the absence of any drug as first measured to establish a baseline. […] Then ACT was measured in the presence of different concentrations of the drug measured. Selected drug combinations were then tested to evaluate for potential synergy in action between the drug combination. The net ACT (ACT minus blood control ACT) was utilized to visualize the synergistic effect. […] The figures are presented in ng/mg wherein the density of blood and tissue are approximately the same.

[4] = system: platelets (Tissue factor generated antiplatelet); conditions: cited from earlier work
Factor IIa = conditions: cited from earlier work
[5] = system: blood clotting (citrated sheep blood); assay: Net activated clotting time (net ACT) in citrated sheep blood (Examples 3-5); set-up: key: seconds; measured ACT minus blood control ACT (165 s); conditions: single drug, blood control 165 seconds
Description: The activated clotting time (ACT) evaluation of anticoagulants was performed in calcium citrate sheep blood and recorded employing the Hemochron® Response device. The ACT measurements were made in citrated sheep blood. 1.9 ml of citrated sheep blood was added to a test tube containing an activator (Hemochron@Celite@ ACT tubes, Lot F8FTE026 from Accriva Diagnostics, Inc.). A target amount of drug solution was then added into the test tube. The test tube was gently swirled so that the blood and drug were well-mixed. 0.1 ml of 0.3M calcium chloride was then added. The tube was gently shaken before being inserted into the Hemochron Response detector. The ACT read out was recorded and reported. The ACT of the control blood in the absence of any drug as first determined to establish a baseline. Here the blood control measured is 165 seconds. Then ACT was determined in the presence of different concentrations of the drug as a single component. In the following study, the net ACT (measured ACT minus blood control ACT) was utilized to visualize the synergistic effect of direct factor Xa inhibitor (Rivaroxaban) and direct factor IIa inhibitor (Argatroban) drug combinations. The figures are presented in ng/mg wherein the density of blood and tissue are approximately the same.
Example 4 is the continuation of example 3, which employed the same method as in example 3. The only difference is that the direct factor Xa inhibitor Edoxaban is used in place of direct factor Xa inhibitor Rivaroxaban.
Example 5 is the continuation of example 3, which employed the same method as in example 3. The only difference is that the direct factor Xa inhibitor Betrixaban is used in place of direct factor Xa inhibitor Rivaroxaban.

[6] = system: Human Aortic SMC (HAoSMC); assay: HAoSMC cell proliferation assay (CellTiter Aqueous, 72 hours); assay type: cell-based
Description: Cell proliferation assay was done in 96-well format. Low passage cells were trypsinized and seeded in 96 well plates at a density of ~4000 cells/well. The cells are allowed to attach overnight in a CO2 incubator. Next day, the medium was removed and replaced with fresh complete medium containing various concentrations of the test compounds. The final concentration of vehicle (DMSO) in the test medium was 0.1%. After adding test compounds, the cells were incubated for 72 hours. Following this period, the medium was removed and then added fresh medium (100 μl) containing CellTiter Aqueous (1× concentration final) to the wells and incubated for 2 hours in the CO2 incubator. At the end of incubation measured […] with a plate-reader. Controlled incubations with untreated cells and blank incubations containing only medium were included and tested similarly. Based on the cell viability assay the percentage inhibition of the cell proliferation was determined at the different concentrations of the drug tested.
Following the cell proliferation assay as indicated earlier, the percent cell proliferation inhibition was determined, and the assay results plotted to determine the IC50.

- Cumulative Percent Release of drug by day 7: Argatroban [2]: at least 96.9%
SMILES: CC1CNc2c(cccc2S(=O)(=O)N[C@@H](CCCNC(=N)N)C(=O)N2CC[C@@H](C)C[C@@H]2C(=O)O)C1 (stereo partly drawn) [Argatroban]
- LLL / smooth muscle cell proliferation compared to bare metal control stents (porcine coronary artery): larger LLLs compared to control
- inhibition of fibrin formation compared to bare metal control stents (porcine coronary artery): not effective at inhibiting fibrin formation
- ACT [1]: 301
- net ACT [3]: 56 s
- pIC50 [4]: 7.10
- IC50 for Tissue factor generated antiplatelet [4]: 0.04 ng/mg
- IC50 for Anti-Factor IIa (Factor IIa): 0.0107 ng/mg
- pIC50 (Factor IIa; read-out: IC50 for Anti-Factor IIa): 7.68
- net ACT ([5]; 0.15 ng/mg): 42 and 46
- net ACT ([5]; 0.3 ng/mg): 54
- HAoSMC proliferation inhibition [6]: small to no inhibition
